Data reported in patent US10457707B2, “Substituted urea depsipeptide analogs as activators of the CLPP endopeptidase” (priority 2015, dated 2019).
Values after ≈ are worked out from the molar mass of the structure shown. Read-outs that look alike come from different tables or passages of the source. *1 amine or outer side, *2 acyl side, *3 side chain or, on linkers, in order; H or OH if unused. Where a SMILES comes first, the peptide text is derived from it. Bridges are numbered along the chain shown (N, C = ends). [ ]: non-standard residue; d: D form. The star is where a group is joined. Phe(3,5-F2) = N[C@@H](Cc1cc(F)cc(F)c1)C(=O)O; NH(1-Me-indolin-5-yl) = CN1CCc2cc(N*)ccc21; Morpholine(3S-CO) = O=C(O)[C@@H]1COCCN1; Pro(4S-Me) = C[C@@H]1CN[C@H](C(=O)O)C1; NH(4-Cl-2-F-phenyl) = Fc1cc(Cl)ccc1N*; Pro(4R-Me) = C[C@H]1CN[C@H](C(=O)O)C1; NMeaThr = CN[C@H](C(=O)O)[C@H](C)O; Hyp = O=C(O)[C@@H]1C[C@@H](O)CN1; NH(4-Me-phenyl) = Cc1ccc(N*)cc1; aThr = C[C@H](O)[C@H](N)C(=O)O; Pip = O=C(O)[C@@H]1CCCCN1; NMeA = CN[C@@H](C)C(=O)O; X1 = N#Cc1cc(N*)ccc1F; CO = O=C([*:1])[*:2]

How the values were obtained:
[1] = molecular target: T1, Sa-ClpP (Staphylococcus aureus, UniProt Q2G036); test: Sa-ClpP casein-BODIPY ClpP activation assay, method variant not marked in Table 5; format: biochemical, S. aureus
T1 construct: made in house; host or cells: E. coli BL21(DE3)
T1 sequence (Q2G036 1-195): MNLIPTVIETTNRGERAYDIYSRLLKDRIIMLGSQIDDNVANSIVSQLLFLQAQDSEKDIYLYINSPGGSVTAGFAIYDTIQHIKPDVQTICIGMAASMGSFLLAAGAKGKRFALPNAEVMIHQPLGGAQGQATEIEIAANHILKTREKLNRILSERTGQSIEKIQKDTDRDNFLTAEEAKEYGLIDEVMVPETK
Method in brief: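 EC50 for activation derived by dose-response fitting of casein digestion rates, run in triplicate. Conditions: 37° C, pH 8 buffer with 200 mM KCl and 1 mM TCEP, 10 μM Sa-ClpP, 25 μg/ml BODIPY FL casein, compound at 0-1000 μM; signal at 485/528 nm followed 45 min.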

[2] = test system: Streptococcus pneumoniae, R6; test: Minimal inhibitory concentration assay; format: cell-based; settings: read-out: Minimal Inhibitory Concentrations S. pneumoniae R6
Method in brief: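 Microbroth dilution with two-fold serial compound dilutions in broth, incubated aerobically overnight at 37° C. MIC taken as the lowest concentration preventing bacterial growth.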

[3] = values without ** or † mark, assay variant not stated, read-out: ClpP Activation EC50

SMILES	EC50 [1] [nM]	MIC [2] [µM]	EC50 [1, 3] [nM]
C[C@@H]1C[C@H]2C(=O)O[C@@H](C)[C@H](NC(=O)[C@H](Cc3cc(F)cc(F)c3)NC(=O)Nc3ccc(F)c(C#N)c3)C(=O)N3C[C@H](O)C[C@H]3C(=O)N3CCOC[C@H]3C(=O)N[C@@H](C)C(=O)N2C1 [Compound 326, (S)-2-(3-(3-cyano-4-fluorophenyl)ureido)-3-(3,5-difluorophenyl)-N-((6aS,8R,12S,13S,15aS,17R,21S,23aS)-8-hydroxy-13,17,21-trimethyl-6,11,15,20,23-pentaoxooctadecahydro-6H,11H,15H-[1,4]oxazino[3,4-i]dipyrrolo[2,1-c:2′,1′-l][1]oxa[4,7,10,13]tetraazacyclo-hexadecin-12-yl)propanamide] ({X1-CO}-[Phe(3,5-F2)][aThr][Hyp][Morpholine(3S-CO)]A[Pro(4R-Me)]; ester 2-C)	460 ± 40	0.625 (≈ 0.534 µg/mL)	
C[C@@H]1C[C@H]2C(=O)O[C@@H](C)[C@H](NC(=O)[C@H](Cc3cc(F)cc(F)c3)NC(=O)Nc3ccc(F)c(C#N)c3)C(=O)N3CCC[C@H]3C(=O)N3CCCC[C@H]3C(=O)N[C@@H](C)C(=O)N2C1 [Compound 324, (S)-2-(3-(3-cyano-4-fluorophenyl)ureido)-3-(3,5-difluorophenyl)-N-((2R,6S,8aS,14aS,20S,21S,23aS)-2,6,21-trimethyl-5,8,14,19,23-pentaoxooctadecahydro-1H,5H,14H,19H-pyrido[2,1-i]dipyrrolo[2,1-c:2′,1′-l][1]oxa[4,7,10,13]tetraazacyclo-hexadecin-20-yl)propanamide] ({X1-CO}-[Phe(3,5-F2)][aThr]P[Pip]A[Pro(4R-Me)]; ester 2-C)	500 ± 30	0.625 (≈ 0.523 µg/mL)	
Cc1ccc(NC(=O)N[C@@H](Cc2cc(F)cc(F)c2)C(=O)N[C@@H]2C(=O)N3C[C@H](O)C[C@H]3C(=O)N(C)[C@@H](C)C(=O)N[C@@H](C)C(=O)N3C[C@@H](C)C[C@H]3C(=O)O[C@H]2C)cc1 [Compound 214, (S)-3-(3,5-difluorophenyl)-N-((2S,6S,9S,11aS,13R,17S,18S,20aS)-13-hydroxy-2,6,9,10,18-pentamethyl-5,8,11,16,20-pentaoxohexadecahydro-1H,5H,16H-dipyrrolo[2,1-c:2′,1′-l][1]oxa[4,7,10,13]tetraazacyclohexadecin-17-yl)-2-(3-(p-tolyl)ureido)propanamide] ({NH(4-Me-phenyl)-CO}-[Phe(3,5-F2)][aThr][Hyp][NMeA]A[Pro(4S-Me)]; ester 2-C)		0.195 (≈ 0.156 µg/mL)	1280 ± 30
C[C@@H]1C[C@H]2C(=O)O[C@@H](C)[C@H](NC(=O)[C@H](Cc3cc(F)cc(F)c3)NC(=O)Nc3ccc(Cl)cc3F)C(=O)N3C[C@H](O)C[C@H]3C(=O)N3CCOC[C@H]3C(=O)N[C@@H](C)C(=O)N2C1 [Compound 316, (S)-2-(3-(4-chloro-2-fluorophenyl)ureido)-3-(3,5-difluorophenyl)-N-((6aS,8R,12S,13S,15aS,17R,21S,23aS)-8-hydroxy-13,17,21-trimethyl-6,11,15,20,23-pentaoxooctadecahydro-6H,11H,15H-[1,4]oxazino[3,4-i]dipyrrolo[2,1-c:2′,1′-l][1]oxa[4,7,10,13]tetraazacyclo-hexadecin-12-yl)propanamide] ({NH(4-Cl-2-F-phenyl)-CO}-[Phe(3,5-F2)][aThr][Hyp][Morpholine(3S-CO)]A[Pro(4R-Me)]; ester 2-C)	450 ± 20	< 0.02	
Cc1ccc(NC(=O)N[C@@H](Cc2cc(F)cc(F)c2)C(=O)N[C@@H]2C(=O)N3CCC[C@H]3C(=O)N3CCOC[C@H]3C(=O)N[C@@H](C)C(=O)N3C[C@H](C)C[C@H]3C(=O)O[C@H]2C)cc1 [Compound 210, (S)-3-(3,5-difluorophenyl)-2-(3-(p-tolyl)ureido)-N-((6aS,12S,13S,15aS,17R,21S,23aS)-13,17,21-trimethyl-6,11,15,20,23-pentaoxooctadecahydro-6H,11H,15H-[1,4]oxazino[3,4-i]dipyrrolo[2,1-c:2′,1′-l][1]oxa[4,7,10,13]tetraazacyclohexadecin-12-yl)propanamide] ({NH(4-Me-phenyl)-CO}-[Phe(3,5-F2)][aThr]P[Morpholine(3S-CO)]A[Pro(4R-Me)]; ester 2-C)		0.002 (≈ 0.00162 µg/mL)	400 ± 10
C[C@@H]1C[C@H]2C(=O)OC[C@H](NC(=O)[C@H](Cc3ccccc3)NC(=O)Nc3ccc4c(c3)OCO4)C(=O)N3CCC[C@H]3C(=O)N3CCCC[C@H]3C(=O)N[C@@H](C)C(=O)N2C1 [Compound 194, (S)-2-(3-(benzo[d][1,3]dioxol-5-yl)ureido)-N-((2R,6S,8aS,14aS,20S,23aS)-2,6-dimethyl-5,8,14,19,23-pentaoxooctadecahydro-1H,5H,14H,19H-pyrido[2,1-i]dipyrrolo[2,1-c:2′,1′-l][1]oxa[4,7,10,13]tetraazacyclohexadecin-20-yl)-3-phenylpropanamide]		< 0.2	1200 ± 600
Cc1ccc(NC(=O)N[C@@H](Cc2cc(F)cc(F)c2)C(=O)N[C@@H]2C(=O)N3CCC[C@H]3C(=O)N(C)[C@@H]([C@H](C)O)C(=O)N[C@@H](C)C(=O)N3C[C@H](C)C[C@H]3C(=O)O[C@H]2C)cc1 [Compound 208, (S)-3-(3,5-difluorophenyl)-N-((2R,6S,9S,11aS,17S,18S,20aS)-9-((S)-1-hydroxyethyl)-2,6,10,18-tetramethyl-5,8,11,16,20-pentaoxohexadecahydro-1H,5H,16H-dipyrrolo[2,1-c:2′,1′-l][1]oxa[4,7,10,13]tetraazacyclohexadecin-17-yl)-2-(3-(p-tolyl)ureido)propanamide] ({NH(4-Me-phenyl)-CO}-[Phe(3,5-F2)][aThr]P[NMeaThr]A[Pro(4R-Me)]; ester 2-C)		0.02 (≈ 0.0162 µg/mL)	480 ± 30
C[C@@H]1C[C@H]2C(=O)O[C@@H](C)[C@H](NC(=O)[C@H](Cc3cc(F)cc(F)c3)NC(=O)Nc3ccc4c(c3)CCN4C)C(=O)N3C[C@H](O)C[C@H]3C(=O)N3CCOC[C@H]3C(=O)N[C@@H](C)C(=O)N2C1 [Compound 315, (S)-3-(3,5-difluorophenyl)-N-((6aS,8R,12S,13S,15aS,17R,21S,23aS)-8-hydroxy-13,17,21-trimethyl-6,11,15,20,23-pentaoxooctadecahydro-6H,11H,15H-[1,4]oxazino[3,4-i]dipyrrolo[2,1-c:2′,1′-l][1]oxa[4,7,10,13]tetraazacyclohexadecin-12-yl)-2-(3-(1-methylindolin-5-yl)ureido)propanamide] ({NH(1-Me-indolin-5-yl)-CO}-[Phe(3,5-F2)][aThr][Hyp][Morpholine(3S-CO)]A[Pro(4R-Me)]; ester 2-C)		0.313 (≈ 0.271 µg/mL)	1060 ± 40
Cc1ccc(NC(=O)N[C@@H](Cc2cc(F)cc(F)c2)C(=O)N[C@H]2COC(=O)[C@@H]3C[C@@H](C)CN3C(=O)[C@H](C)NC(=O)[C@@H]3CCCCN3C(=O)[C@@H]3CCCN3C2=O)cc1C [Compound 207, (S)-3-(3,5-difluorophenyl)-N-((2R,6S,8aS,14aS,20S,23aS)-2,6-dimethyl-5,8,14,19,23-pentaoxooctadecahydro-1H,5H,14H,19H-pyrido[2,1-i]dipyrrolo[2,1-c:2′,1′-l][1]oxa[4,7,10,13]tetraazacyclohexadecin-20-yl)-2-(3-(3,4-dimethylphenyl)ureido)propanamide]		< 0.2	8300 ± 1900
